# Source: the CheMixHub viscosity set
# ± gives the uncertainty stated by the source.
# Test: xn = mol fraction of the nth substance listed
smiles,measurement,setting,value
CCCCCCCCCCCCCCCC + CCCO,viscosity,"298.15 K, 101 kPa, x2 = 0.3",2.665 ± 0.017 mPa·s
same,viscosity,"308.15 K, 101 kPa, x2 = 0.8",1.795 ± 0.012 mPa·s
ClC(Cl)Cl + CCCO,viscosity,"293.15 K, 101 kPa, x2 = 0.1045",0.7119 ± 0.015 mPa·s
same,viscosity,"293.15 K, 101 kPa, x2 = 0.2064",0.7711 ± 0.017 mPa·s
same,viscosity,"293.15 K, 101 kPa, x2 = 0.3054",0.8524 ± 0.018 mPa·s
same,viscosity,"293.15 K, 101 kPa, x2 = 0.4027",0.9582 ± 0.02 mPa·s
same,viscosity,"293.15 K, 101 kPa, x2 = 0.5075",1.105 ± 0.024 mPa·s
same,viscosity,"293.15 K, 101 kPa, x2 = 0.6005",1.255 ± 0.027 mPa·s
same,viscosity,"293.15 K, 101 kPa, x2 = 0.7045",1.507 ± 0.032 mPa·s
same,viscosity,"293.15 K, 101 kPa, x2 = 0.8005",1.746 ± 0.037 mPa·s
same,viscosity,"293.15 K, 101 kPa, x2 = 0.8967",1.998 ± 0.043 mPa·s
same,viscosity,"303 K, 101.3 kPa, x1 = 0.2987",1.065 ± 0.018 mPa·s
same,viscosity,"303 K, 101.3 kPa, x1 = 0.4992",0.8162 ± 0.014 mPa·s
same,viscosity,"303 K, 101.3 kPa, x1 = 0.699",0.6346 ± 0.011 mPa·s
same,viscosity,"303 K, 101.3 kPa, x1 = 0.9085",0.5383 ± 0.0099 mPa·s
same,viscosity,"303.15 K, 101 kPa, x2 = 0.059",0.5225 ± 0.0044 mPa·s
same,viscosity,"303.15 K, 101 kPa, x2 = 0.1045",0.6482 ± 0.014 mPa·s
same,viscosity,"303.15 K, 101 kPa, x2 = 0.1099",0.5365 ± 0.0046 mPa·s
same,viscosity,"303.15 K, 101 kPa, x2 = 0.1428",0.5488 ± 0.0046 mPa·s
same,viscosity,"303.15 K, 101 kPa, x2 = 0.1958",0.5706 ± 0.0048 mPa·s
same,viscosity,"303.15 K, 101 kPa, x2 = 0.2064",0.6878 ± 0.015 mPa·s
same,viscosity,"303.15 K, 101 kPa, x2 = 0.2432",0.5949 ± 0.005 mPa·s
same,viscosity,"303.15 K, 101 kPa, x2 = 0.3054",0.7556 ± 0.016 mPa·s
same,viscosity,"303.15 K, 101 kPa, x2 = 0.3447",0.6588 ± 0.0055 mPa·s
same,viscosity,"303.15 K, 101 kPa, x2 = 0.4027",0.8383 ± 0.018 mPa·s
same,viscosity,"303.15 K, 101 kPa, x2 = 0.4974",0.8026 ± 0.0065 mPa·s
same,viscosity,"303.15 K, 101 kPa, x2 = 0.5075",0.9487 ± 0.02 mPa·s
same,viscosity,"303.15 K, 101 kPa, x2 = 0.6005",1.073 ± 0.023 mPa·s
same,viscosity,"303.15 K, 101 kPa, x2 = 0.6171",0.9716 ± 0.0078 mPa·s
same,viscosity,"303.15 K, 101 kPa, x2 = 0.7045",1.242 ± 0.026 mPa·s
same,viscosity,"303.15 K, 101 kPa, x2 = 0.7318",1.185 ± 0.0093 mPa·s
same,viscosity,"303.15 K, 101 kPa, x2 = 0.8005",1.408 ± 0.03 mPa·s
same,viscosity,"303.15 K, 101 kPa, x2 = 0.8606",1.46 ± 0.011 mPa·s
same,viscosity,"303.15 K, 101 kPa, x2 = 0.8967",1.584 ± 0.034 mPa·s
same,viscosity,"303.15 K, 101 kPa, x2 = 0.9106",1.565 ± 0.012 mPa·s
same,viscosity,"303.15 K, 101 kPa, x2 = 0.9251",1.595 ± 0.012 mPa·s
same,viscosity,"303.15 K, 101 kPa, x2 = 0.9307",1.606 ± 0.012 mPa·s
same,viscosity,"303.15 K, 101 kPa, x2 = 0.95",1.643 ± 0.013 mPa·s
same,viscosity,"303.15 K, 101.3 kPa, x2 = 0.059",0.5225 ± 0.014 mPa·s
same,viscosity,"303.15 K, 101.3 kPa, x2 = 0.1099",0.5365 ± 0.014 mPa·s
same,viscosity,"303.15 K, 101.3 kPa, x2 = 0.1428",0.5488 ± 0.015 mPa·s
same,viscosity,"303.15 K, 101.3 kPa, x2 = 0.1958",0.5706 ± 0.015 mPa·s
same,viscosity,"303.15 K, 101.3 kPa, x2 = 0.2432",0.5949 ± 0.016 mPa·s
same,viscosity,"303.15 K, 101.3 kPa, x2 = 0.3447",0.6588 ± 0.017 mPa·s
same,viscosity,"303.15 K, 101.3 kPa, x2 = 0.4974",0.8026 ± 0.021 mPa·s
same,viscosity,"303.15 K, 101.3 kPa, x2 = 0.6171",0.9716 ± 0.026 mPa·s
same,viscosity,"303.15 K, 101.3 kPa, x2 = 0.7318",1.185 ± 0.031 mPa·s
same,viscosity,"303.15 K, 101.3 kPa, x2 = 0.8606",1.46 ± 0.038 mPa·s
same,viscosity,"303.15 K, 101.3 kPa, x2 = 0.9106",1.565 ± 0.041 mPa·s
same,viscosity,"303.15 K, 101.3 kPa, x2 = 0.9251",1.595 ± 0.042 mPa·s
same,viscosity,"311 K, 101.3 kPa, x1 = 0.0987",1.283 ± 0.021 mPa·s
same,viscosity,"311 K, 101.3 kPa, x1 = 0.2987",0.9064 ± 0.015 mPa·s
same,viscosity,"311 K, 101.3 kPa, x1 = 0.4992",0.7227 ± 0.013 mPa·s
same,viscosity,"311 K, 101.3 kPa, x1 = 0.699",0.5734 ± 0.01 mPa·s
same,viscosity,"311 K, 101.3 kPa, x1 = 0.9085",0.4977 ± 0.0093 mPa·s
same,viscosity,"313.15 K, 101 kPa, x2 = 0.1045",0.5901 ± 0.013 mPa·s
same,viscosity,"313.15 K, 101 kPa, x2 = 0.2064",0.6192 ± 0.013 mPa·s
same,viscosity,"313.15 K, 101 kPa, x2 = 0.3054",0.6675 ± 0.014 mPa·s
same,viscosity,"313.15 K, 101 kPa, x2 = 0.4027",0.7329 ± 0.016 mPa·s
same,viscosity,"313.15 K, 101 kPa, x2 = 0.5075",0.8143 ± 0.017 mPa·s
same,viscosity,"313.15 K, 101 kPa, x2 = 0.6005",0.9163 ± 0.02 mPa·s
same,viscosity,"313.15 K, 101 kPa, x2 = 0.7045",1.043 ± 0.022 mPa·s
same,viscosity,"313.15 K, 101 kPa, x2 = 0.8967",1.278 ± 0.027 mPa·s
same,viscosity,"319 K, 101.3 kPa, x1 = 0.0987",1.08 ± 0.018 mPa·s
same,viscosity,"319 K, 101.3 kPa, x1 = 0.2941",0.8178 ± 0.014 mPa·s
same,viscosity,"319 K, 101.3 kPa, x1 = 0.497",0.6404 ± 0.011 mPa·s
same,viscosity,"319 K, 101.3 kPa, x1 = 0.699",0.5202 ± 0.0096 mPa·s
same,viscosity,"319 K, 101.3 kPa, x1 = 0.9085",0.4655 ± 0.0088 mPa·s
same,viscosity,"323.15 K, 101 kPa, x2 = 0.1045",0.4791 ± 0.01 mPa·s
same,viscosity,"323.15 K, 101 kPa, x2 = 0.2064",0.535 ± 0.011 mPa·s
same,viscosity,"323.15 K, 101 kPa, x2 = 0.3054",0.5965 ± 0.013 mPa·s
same,viscosity,"323.15 K, 101 kPa, x2 = 0.4027",0.6495 ± 0.014 mPa·s
same,viscosity,"323.15 K, 101 kPa, x2 = 0.5075",0.7165 ± 0.015 mPa·s
same,viscosity,"323.15 K, 101 kPa, x2 = 0.6005",0.7941 ± 0.017 mPa·s
same,viscosity,"323.15 K, 101 kPa, x2 = 0.7045",0.8805 ± 0.019 mPa·s
same,viscosity,"323.15 K, 101 kPa, x2 = 0.8005",0.965 ± 0.021 mPa·s
same,viscosity,"323.15 K, 101 kPa, x2 = 0.8967",1.047 ± 0.022 mPa·s
ClC(Cl)Cl + CCO,viscosity,"303 K, 101.3 kPa, x1 = 0.1074",0.9539 ± 0.031 mPa·s
same,viscosity,"303 K, 101.3 kPa, x1 = 0.2992",0.8095 ± 0.027 mPa·s
same,viscosity,"303 K, 101.3 kPa, x1 = 0.5029",0.6591 ± 0.023 mPa·s
same,viscosity,"303 K, 101.3 kPa, x1 = 0.6978",0.5679 ± 0.02 mPa·s
same,viscosity,"303 K, 101.3 kPa, x1 = 0.9003",0.5256 ± 0.019 mPa·s
same,viscosity,"303.15 K, 101 kPa, x2 = 0.0811",0.514 ± 0.0038 mPa·s
same,viscosity,"303.15 K, 101 kPa, x2 = 0.1571",0.5247 ± 0.0039 mPa·s
same,viscosity,"303.15 K, 101 kPa, x2 = 0.2368",0.544 ± 0.0041 mPa·s
same,viscosity,"303.15 K, 101 kPa, x2 = 0.3342",0.5774 ± 0.0043 mPa·s
same,viscosity,"303.15 K, 101 kPa, x2 = 0.4545",0.6351 ± 0.0048 mPa·s
same,viscosity,"303.15 K, 101 kPa, x2 = 0.5514",0.697 ± 0.0053 mPa·s
same,viscosity,"303.15 K, 101 kPa, x2 = 0.6372",0.7617 ± 0.0058 mPa·s
same,viscosity,"303.15 K, 101 kPa, x2 = 0.7644",0.8683 ± 0.0067 mPa·s
same,viscosity,"303.15 K, 101 kPa, x2 = 0.7943",0.8927 ± 0.0069 mPa·s
same,viscosity,"303.15 K, 101 kPa, x2 = 0.8607",0.9412 ± 0.0073 mPa·s
same,viscosity,"303.15 K, 101 kPa, x2 = 0.9211",0.9752 ± 0.0076 mPa·s
same,viscosity,"303.15 K, 101.3 kPa, x2 = 0.186",0.514 ± 0.014 mPa·s
same,viscosity,"303.15 K, 101.3 kPa, x2 = 0.3257",0.5247 ± 0.014 mPa·s
same,viscosity,"303.15 K, 101.3 kPa, x2 = 0.4457",0.544 ± 0.015 mPa·s
same,viscosity,"303.15 K, 101.3 kPa, x2 = 0.5653",0.5774 ± 0.015 mPa·s
same,viscosity,"303.15 K, 101.3 kPa, x2 = 0.6834",0.6351 ± 0.017 mPa·s
same,viscosity,"303.15 K, 101.3 kPa, x2 = 0.761",0.697 ± 0.018 mPa·s
same,viscosity,"303.15 K, 101.3 kPa, x2 = 0.8198",0.7617 ± 0.02 mPa·s
same,viscosity,"303.15 K, 101.3 kPa, x2 = 0.8937",0.8683 ± 0.023 mPa·s
same,viscosity,"303.15 K, 101.3 kPa, x2 = 0.9091",0.8927 ± 0.024 mPa·s
same,viscosity,"303.15 K, 101.3 kPa, x2 = 0.9412",0.9412 ± 0.025 mPa·s
same,viscosity,"303.15 K, 101.3 kPa, x2 = 0.968",0.9752 ± 0.026 mPa·s
same,viscosity,"311 K, 101.3 kPa, x1 = 0.1074",0.8217 ± 0.027 mPa·s
same,viscosity,"311 K, 101.3 kPa, x1 = 0.2992",0.7021 ± 0.024 mPa·s
same,viscosity,"311 K, 101.3 kPa, x1 = 0.5029",0.5849 ± 0.021 mPa·s
same,viscosity,"311 K, 101.3 kPa, x1 = 0.6978",0.5169 ± 0.019 mPa·s
same,viscosity,"311 K, 101.3 kPa, x1 = 0.9003",0.4864 ± 0.018 mPa·s
same,viscosity,"319 K, 101.3 kPa, x1 = 0.1074",0.7107 ± 0.024 mPa·s
same,viscosity,"319 K, 101.3 kPa, x1 = 0.2892",0.6097 ± 0.021 mPa·s
same,viscosity,"319 K, 101.3 kPa, x1 = 0.5029",0.5234 ± 0.019 mPa·s
same,viscosity,"319 K, 101.3 kPa, x1 = 0.6978",0.4922 ± 0.018 mPa·s
same,viscosity,"319 K, 101.3 kPa, x1 = 0.9003",0.4517 ± 0.017 mPa·s
